Measured values published in publication PMC6972920, “Structure-based development of caged dopamine D2/D3 receptor antagonists” (Scientific Reports, 2020).
Entries after “also recorded” stand apart in the source; their conditions may differ. Where two headings read alike, the source gives them in different places.

Experiments:
[1] = target: T1, human adrenergic α2A receptor (Homo sapiens, UniProt P08913); assay: Competition binding, [3H]RX821002, HEK293T membranes
T1 construct: expressed in transfected cells; host or cells: HEK293T cells, transient transfection
T1 sequence (P08913 1-465): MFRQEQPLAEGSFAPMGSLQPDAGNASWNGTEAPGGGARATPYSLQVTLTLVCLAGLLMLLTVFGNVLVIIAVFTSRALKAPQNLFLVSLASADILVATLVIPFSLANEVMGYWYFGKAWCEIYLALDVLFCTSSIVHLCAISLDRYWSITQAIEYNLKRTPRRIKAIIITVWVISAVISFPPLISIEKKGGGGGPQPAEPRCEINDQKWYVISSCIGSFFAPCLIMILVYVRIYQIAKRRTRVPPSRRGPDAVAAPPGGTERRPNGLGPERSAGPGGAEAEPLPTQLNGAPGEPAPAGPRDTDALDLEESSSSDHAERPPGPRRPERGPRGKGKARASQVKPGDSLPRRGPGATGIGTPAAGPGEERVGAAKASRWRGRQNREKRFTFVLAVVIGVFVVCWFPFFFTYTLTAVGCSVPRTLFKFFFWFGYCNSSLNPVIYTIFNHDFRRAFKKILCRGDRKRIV

[2] = target: T2, human dopamine receptor subtype D4.4 (Homo sapiens, UniProt P21917); assay: Radioligand displacement, [3H]spiperone, CHO cell membranes; format: binding
T2 sequence (P21917 1-419): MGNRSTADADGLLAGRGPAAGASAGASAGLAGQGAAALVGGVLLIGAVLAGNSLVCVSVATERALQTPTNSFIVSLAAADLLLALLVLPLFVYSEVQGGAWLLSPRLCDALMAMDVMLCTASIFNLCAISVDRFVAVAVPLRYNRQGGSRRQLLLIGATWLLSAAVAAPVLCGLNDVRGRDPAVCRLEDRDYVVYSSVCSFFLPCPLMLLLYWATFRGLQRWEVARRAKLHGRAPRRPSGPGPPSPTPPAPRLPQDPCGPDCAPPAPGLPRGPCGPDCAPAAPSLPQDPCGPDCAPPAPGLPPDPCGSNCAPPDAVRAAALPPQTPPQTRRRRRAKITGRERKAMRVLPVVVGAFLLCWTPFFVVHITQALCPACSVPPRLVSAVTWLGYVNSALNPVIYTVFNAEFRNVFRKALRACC

[3] = Compound stability and photolysis in aqueous buffer monitored by HPLC; format: physicochemical; details: for behaviour upon illumination with λp = 365 nm (in words): aqueous buffer, LED 365 nm, HPLC; for stability in the absence of light (in words): dark, storage and solution, HPLC/LCMS
Method: All measurements were performed in aqueous buffer solution. Compound stability and photolysis was monitored by HPLC. […] Excitation of NB- and DMNB-type cages to trigger photolysis is usually performed with light of 300–400 nm. This absorption profile may limit the wavelength range for cage photolysis, as simultaneous excitation of the core pharmacophore may trigger photolytic degradation of the desired product. We performed photolysis experiments using a near UV light-emitting diode (LED) light source with a peak wavelength of λp = 365 nm and a spectrum half width of Δλ = 9 nm.
No unspecific degradation of the pharmacophore was observed, resulting in constant concentration of the desired product. […] The exposure to ambient light for longer time led to partial photolytic degradation. After incubation in aqueous buffer at ambient light for 1 h, we detected remaining 51% and 62% of the initial concentrations of 4 (MG307) and 5, respectively.
For compound characterization, UV/Vis absorption spectra of samples with c = 0.1 mM in methanol were measured on an Analytik Jena Specord 200 Plus spectrometer (λ = 210–400 nm). Irradiation experiments to trigger photolysis were performed in open HPLC glass vials using a LED (λ = 365 nm, 4.5 V, 0.7 A) to irradiate the samples from top. An aqueous buffer solution served as solvent (50 mM Tris, 1 mM EDTA, 50 mM MgCl2, 100 µg/ml bacitracin, 5 µg/ml soybean trypsin inhibitor), with initial sample concentrations of […] and sample volumes of 100 µl. Photolysis was monitored by HPLC as specified before (eluent system 1). […] Unless specified differently, all experiments were performed in triplicate.

[4] = target: human dopamine receptor subtype D2S (Homo sapiens, UniProt P14416); assay: Radioligand displacement, [3H]spiperone, CHO cell membranes; format: binding
human dopamine receptor subtype D2S, sequence (P14416 1-414 isoform P14416-2): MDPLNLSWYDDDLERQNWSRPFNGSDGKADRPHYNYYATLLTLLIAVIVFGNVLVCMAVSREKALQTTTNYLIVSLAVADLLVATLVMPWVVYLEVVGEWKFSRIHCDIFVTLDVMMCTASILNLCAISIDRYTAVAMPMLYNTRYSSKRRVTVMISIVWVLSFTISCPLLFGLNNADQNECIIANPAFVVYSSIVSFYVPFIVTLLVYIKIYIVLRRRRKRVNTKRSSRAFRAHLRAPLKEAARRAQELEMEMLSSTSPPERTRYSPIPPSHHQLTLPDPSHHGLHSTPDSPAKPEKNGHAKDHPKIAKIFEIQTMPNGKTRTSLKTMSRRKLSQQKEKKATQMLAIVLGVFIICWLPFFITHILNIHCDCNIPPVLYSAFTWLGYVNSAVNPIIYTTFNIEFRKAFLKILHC

[5] = target: human dopamine receptor subtype D3 (Homo sapiens, UniProt P35462); assay: as above; format: binding; details: mean ± SEM of 4-9 experiments, compounds 1, 2, 3: ± SD of two experiments
human dopamine receptor subtype D3, sequence (P35462 whole entry): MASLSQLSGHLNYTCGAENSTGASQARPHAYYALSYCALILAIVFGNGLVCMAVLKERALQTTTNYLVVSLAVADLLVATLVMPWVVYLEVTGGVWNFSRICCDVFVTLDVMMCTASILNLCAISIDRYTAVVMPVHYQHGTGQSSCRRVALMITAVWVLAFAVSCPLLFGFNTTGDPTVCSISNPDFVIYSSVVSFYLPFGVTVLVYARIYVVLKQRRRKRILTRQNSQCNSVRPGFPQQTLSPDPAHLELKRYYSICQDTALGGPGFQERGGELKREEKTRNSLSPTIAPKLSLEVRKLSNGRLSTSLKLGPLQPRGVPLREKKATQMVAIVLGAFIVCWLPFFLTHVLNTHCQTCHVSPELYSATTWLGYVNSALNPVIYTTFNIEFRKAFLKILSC

[6] = target: human dopamine receptor subtype D2L (Homo sapiens, UniProt P14416); assay: as above; format: binding
human dopamine receptor subtype D2L, sequence (P14416 whole entry): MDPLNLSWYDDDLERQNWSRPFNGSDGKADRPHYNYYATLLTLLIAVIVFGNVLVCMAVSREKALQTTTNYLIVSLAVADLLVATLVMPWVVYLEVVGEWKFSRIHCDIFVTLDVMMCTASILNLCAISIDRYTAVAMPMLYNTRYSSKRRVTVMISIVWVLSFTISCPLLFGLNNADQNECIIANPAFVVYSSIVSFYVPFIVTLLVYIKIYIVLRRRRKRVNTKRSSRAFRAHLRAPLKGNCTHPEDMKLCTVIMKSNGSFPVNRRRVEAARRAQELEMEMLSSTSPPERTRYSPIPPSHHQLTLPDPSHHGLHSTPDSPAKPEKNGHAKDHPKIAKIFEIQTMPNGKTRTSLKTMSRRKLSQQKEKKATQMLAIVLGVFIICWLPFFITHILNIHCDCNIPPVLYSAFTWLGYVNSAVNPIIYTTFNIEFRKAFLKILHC

[7] = target: all dopamine receptor subtypes; assay: Radioligand binding, text summary over all dopamine receptor subtypes tested; design: species or system human; details: range over D2L, D2S, D3, D4.4, stated in text; read-out: Ki values towards all dopamine receptor subtypes (range)
[8] = target: T3, D2S receptor (HEK293T cells co-transfected with D2S and Gαqi) (Homo sapiens, UniProt P14416); assay: Illumination experiment: test compound solution irradiated at 365 nm before addition to cells, quinpirole stimulated IP accumulation; format: cell-based; details: controls; 10 nM quinpirole
T3 construct: expressed in transfected cells; host or cells: HEK-293T cells, transient co-transfection
T3 sequence (P14416 1-414 isoform P14416-2): as the sequence (P14416 1-414 isoform P14416-2) above
Description: […]. Mean curves ± SEM of 4–9 individual curves each done in triplicates. […]. Mean curves from 3–4 experiments each done in duplicate. […]. While 4 (MG307) (green bars) is completely released after 10 sec, the uncaging of 5 (red bars) needs 20 sec. […]. Mean bars ± SEM derived from 3–11 individual experiments each done in quintuplicates. Irradiation with a solution of test compound before addition to the cellular test system. […]. Means ± SEM from 6 experiments in quintuplicates.
[…]. Actually, we observed an onset of a strong inverse agonist effect on quinpirole-induced IP accumulation after irradiation of the nitrobenzyl-caged compound 4 (MG307). […] […]. […] To complement uncaging of the test compounds by irradiation of the test compounds before addition to receptor by a biologically more significant experiment, we investigated whether uncaging can also be accomplished directly in the cellular system. […] In fact, quinpirole-promoted IP accumulation was substantially attenuated after irradiation for 10 or 20 sec. […] […]. […] […].
HEK293T cells were transiently co-transfected with D2S and Gαqi. Solutions of the test compounds were irradiated at λ = 365 nm using the same LED as for the photochemistry experiments (see above) for 2, 5, 10 or 20 sec and the test compound was added to the cell system immediately after illumination. […]. Accumulation of IP was determined as described above. […]. Basal activity (buffer) was set as 0%. As a control, quinpirole was irradiated for 20 sec without observing any difference to the effect of the untreated analog. […]. All irradiation experiments were carried out in the dark or under dim light.

[9] = target: T4, dopamine D2S receptor co-expressed with hybrid Gαqi in HEK293T cells (Homo sapiens, UniProt P14416); assay: IP accumulation assay (IP-One HTRF), inhibition of 10 nM quinpirole; format: cell-based
T4 construct: expressed in transfected cells; host or cells: HEK-293T cells, transient co-transfection
T4 sequence (P14416 1-414 isoform P14416-2): as above

[10] = target: T4, dopamine D2S receptor co-expressed with hybrid Gαqi in HEK293T cells; assay: IP accumulation assay (IP-One HTRF), agonist / inverse agonist effect; format: cell-based
[11] = target: T5, human adrenergic α1A receptor (Homo sapiens, UniProt P35348); assay: Competition binding, [3H]prazosin, HEK293T membranes; details: ± SD of two experiments
T5 construct: expressed in transfected cells; host or cells: HEK293T cells, transient transfection
T5 sequence (P35348 1-466): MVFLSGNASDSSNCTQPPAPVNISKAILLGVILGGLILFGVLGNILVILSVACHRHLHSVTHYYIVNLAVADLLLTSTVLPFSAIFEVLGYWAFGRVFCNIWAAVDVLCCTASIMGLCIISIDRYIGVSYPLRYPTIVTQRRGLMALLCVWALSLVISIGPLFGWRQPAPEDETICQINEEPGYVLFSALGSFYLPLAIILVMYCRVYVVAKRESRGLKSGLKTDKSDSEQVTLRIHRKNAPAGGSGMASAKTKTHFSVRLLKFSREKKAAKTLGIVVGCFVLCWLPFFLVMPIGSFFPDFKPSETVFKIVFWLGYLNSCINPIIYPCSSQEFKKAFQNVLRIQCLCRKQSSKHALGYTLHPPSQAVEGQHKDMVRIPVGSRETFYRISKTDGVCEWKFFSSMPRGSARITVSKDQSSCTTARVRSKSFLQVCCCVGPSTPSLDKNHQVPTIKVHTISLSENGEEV

[12] = target: T6, human adrenergic β2 receptor (Homo sapiens, UniProt P07550); assay: Competition binding, [3H]CGP12177, HEK293T membranes; details: ± SD of two experiments
T6 construct: expressed in transfected cells; host or cells: HEK293T cells, transient transfection
T6 sequence (P07550 whole entry): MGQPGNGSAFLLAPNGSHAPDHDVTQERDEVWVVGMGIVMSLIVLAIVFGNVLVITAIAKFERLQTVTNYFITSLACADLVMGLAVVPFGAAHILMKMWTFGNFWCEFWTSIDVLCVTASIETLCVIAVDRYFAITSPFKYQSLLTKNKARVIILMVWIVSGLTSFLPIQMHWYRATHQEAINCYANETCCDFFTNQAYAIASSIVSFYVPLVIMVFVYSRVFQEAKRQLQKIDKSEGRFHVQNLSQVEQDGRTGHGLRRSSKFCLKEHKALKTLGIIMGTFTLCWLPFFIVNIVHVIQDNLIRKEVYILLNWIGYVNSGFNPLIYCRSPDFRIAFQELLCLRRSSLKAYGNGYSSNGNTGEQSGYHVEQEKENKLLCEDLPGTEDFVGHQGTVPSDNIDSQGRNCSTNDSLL

[13] = target: T7, human serotonin 5-HT2A receptor (Homo sapiens, UniProt P28223); assay: Competition binding, [3H]ketanserin, HEK293T membranes; details: ± SD of two experiments
T7 construct: expressed in transfected cells; host or cells: HEK293T cells, transient transfection
T7 sequence (P28223 whole entry): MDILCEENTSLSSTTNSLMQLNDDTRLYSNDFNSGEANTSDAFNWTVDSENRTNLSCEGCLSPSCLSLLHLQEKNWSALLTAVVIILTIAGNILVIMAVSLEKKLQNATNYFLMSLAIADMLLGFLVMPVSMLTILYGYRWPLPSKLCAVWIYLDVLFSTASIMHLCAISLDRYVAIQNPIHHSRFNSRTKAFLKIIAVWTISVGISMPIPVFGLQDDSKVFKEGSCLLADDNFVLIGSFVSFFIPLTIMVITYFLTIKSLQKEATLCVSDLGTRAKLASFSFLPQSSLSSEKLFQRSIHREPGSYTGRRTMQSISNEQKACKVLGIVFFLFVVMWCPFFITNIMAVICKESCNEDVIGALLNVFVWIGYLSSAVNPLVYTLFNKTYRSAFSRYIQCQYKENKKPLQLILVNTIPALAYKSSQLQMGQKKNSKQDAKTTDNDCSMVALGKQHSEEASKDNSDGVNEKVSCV

[14] = target: T8, human dopamine D5 receptor (Homo sapiens, UniProt P21918); assay: Competition binding, [3H]SCH23390, HEK293T membranes
T8 construct: expressed in transfected cells; host or cells: HEK293T cells, transient transfection
T8 sequence (P21918 whole entry): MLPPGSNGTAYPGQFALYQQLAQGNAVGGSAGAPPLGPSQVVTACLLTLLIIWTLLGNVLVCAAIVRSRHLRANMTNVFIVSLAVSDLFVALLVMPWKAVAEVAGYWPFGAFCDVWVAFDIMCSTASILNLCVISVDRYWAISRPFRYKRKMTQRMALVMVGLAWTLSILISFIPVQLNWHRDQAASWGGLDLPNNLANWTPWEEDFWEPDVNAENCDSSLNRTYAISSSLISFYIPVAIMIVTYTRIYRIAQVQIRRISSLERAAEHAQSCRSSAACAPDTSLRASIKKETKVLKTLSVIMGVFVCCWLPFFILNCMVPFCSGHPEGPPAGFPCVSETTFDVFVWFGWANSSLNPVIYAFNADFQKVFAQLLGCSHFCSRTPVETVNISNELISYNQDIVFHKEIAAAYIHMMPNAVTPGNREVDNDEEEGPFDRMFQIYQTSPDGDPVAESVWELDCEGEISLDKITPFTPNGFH

[15] = target: T9, human dopamine D1 receptor (Homo sapiens, UniProt P21728); assay: as above
T9 construct: expressed in transfected cells; host or cells: HEK293T cells, transient transfection
T9 sequence (P21728 whole entry): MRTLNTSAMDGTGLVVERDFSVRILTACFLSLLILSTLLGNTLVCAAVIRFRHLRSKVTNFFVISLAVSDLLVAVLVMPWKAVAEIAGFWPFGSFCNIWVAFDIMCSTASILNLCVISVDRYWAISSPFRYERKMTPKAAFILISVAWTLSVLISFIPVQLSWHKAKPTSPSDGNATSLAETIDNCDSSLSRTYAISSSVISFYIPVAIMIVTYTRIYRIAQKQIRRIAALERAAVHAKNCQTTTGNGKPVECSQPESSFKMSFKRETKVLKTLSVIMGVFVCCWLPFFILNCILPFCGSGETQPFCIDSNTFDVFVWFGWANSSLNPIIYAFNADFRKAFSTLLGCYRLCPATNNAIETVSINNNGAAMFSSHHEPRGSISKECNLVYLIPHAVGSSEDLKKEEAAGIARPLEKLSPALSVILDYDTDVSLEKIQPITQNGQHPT

[16] = target: T10, human serotonin 5-HT1A receptor (Homo sapiens, UniProt P08908); assay: Competition binding, [3H]WAY600135, HEK293T membranes; details: ± SD of two experiments
T10 construct: expressed in transfected cells; host or cells: HEK293T cells, transient transfection
T10 sequence (P08908 1-422): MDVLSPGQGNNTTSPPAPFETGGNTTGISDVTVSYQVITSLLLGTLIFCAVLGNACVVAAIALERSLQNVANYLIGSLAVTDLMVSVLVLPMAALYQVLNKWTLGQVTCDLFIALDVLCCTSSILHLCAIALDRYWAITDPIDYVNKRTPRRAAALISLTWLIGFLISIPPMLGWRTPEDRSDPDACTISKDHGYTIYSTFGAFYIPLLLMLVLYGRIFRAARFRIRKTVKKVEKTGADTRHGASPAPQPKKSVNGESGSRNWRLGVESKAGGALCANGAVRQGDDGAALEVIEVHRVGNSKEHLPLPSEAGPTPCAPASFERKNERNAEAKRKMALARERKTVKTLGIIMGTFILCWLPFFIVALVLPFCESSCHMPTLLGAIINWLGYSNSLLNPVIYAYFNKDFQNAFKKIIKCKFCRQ

[17] = target: D2 and D3 receptors; assay: Radioligand binding, summary over D2 and D3 subtypes; design: species or system human; details: range over D2L, D2S, D3, stated in text
[18] = [3H]spiperone, mean ± SEM of 4-9 experiments, compounds 1, 2, 3: ± SD of two experiments, read-out: Ki value D4.4
[19] = [3H]spiperone, mean ± SEM of 4-9 experiments, compounds 1, 2, 3: ± SD of two experiments, read-out: Ki value D2S
[20] = [3H]spiperone, mean ± SEM of 4-9 experiments, compounds 1, 2, 3: ± SD of two experiments, read-out: Ki value D2L

`COC1(C2=NCCN2)COc2ccccc2O1` (centres unmarked) [[^3H]RX801002] gave a Kd ([1]; HEK293T membranes, read-out: KD of radioligand for α2A) of 0.29 nM.
With `CCc1cc(Cl)c(OC)c(C(=O)NC[C@@H]2CCCN2CC)c1OCc1ccccc1[N+](=O)[O-]` [compound 1] the Ki [2, 18] was 2800 ± 1200 nM, the “behaviour upon illumination with λp = 365 nm (in words)” value (from here on “behaviour upon illumination”) [3] was “complete photolysis after seconds of irradiation” and the “stability in the absence of light (in words)” value [3] was “not fully stable and slowly decomposed to liberate eticlopride even in the absence of light”.
In the case of `CCc1cc(Cl)c(OC)c(C(=O)NC[C@@H]2CCCN2CC)c1OCc1cc(OC)c(OC)cc1[N+](=O)[O-]` [compound 2], the “behaviour upon illumination” value [3] is reported as “Rapid photolytic degradation” and the “stability in the absence of light (in words)” value [3] is reported as “not fully stable and slowly decomposed to liberate eticlopride even in the absence of light”.
In the case of `CCc1cc(Cl)c(OC)c(C(=O)NC[C@@H]2CCCN2CC)c1OCc1ccccc1` [compound 3], the Ki [4, 19] is reported as 6200 ± 3500 nM, the Ki [5] is reported as 5600 ± 5400 nM and the Ki [6, 20] is reported as 4800 ± 3500 nM. For the same compound, the Ki [7] was 4800 to 22000 nM.
For `CCc1ccc(OC)c(C(=O)NC[C@@H]2CCCN2CC)c1OCc1ccccc1` [compound 6], the “effect of irradiation at 365 nm for 20 sec on the compound's effect on IP accumulation (in words)” value [8] was “does not affect; also recorded: no significant effect”, the Ki [2, 18] was 7700 ± 1100 nM and the Emax ([9]; HEK-293T, in presence of 10 nM quinpirole, relative to quinpirole (100%) and buffer (0%), read-out: inhibitory effect Emax) was -17 ± 9.8%. For the same compound, the IC50 ([9]; blocking of the agonist effect of 10 nM quinpirole, ± SEM, 4-6 experiments, read-out: inhibitory effect IC50) was 5500 ± 2900 nM, the Ki [4, 19] was 510 ± 120 nM and the Ki [5] was 480 ± 120 nM. For the same compound, the Ki [6, 20] was 1300 ± 250 nM, the “functional properties in IP accumulation assay (in words)” value ([10]; D2S receptors) was “inverse agonist properties were observed as well, but potency was low” and the Emax ([10]; HEK-293T, relative to full effect of quinpirole (100%) and buffer (0%)) was -22 ± 1.8%. It also gave an EC50 ([10]; IP accumulation, ± SEM, 3-8 experiments, negative Emax = inverse agonist effect) of 480 ± 310 nM.
For `CCc1cc(Cl)c(OC)c(C(=O)NC[C@@H]2CCCN2CC)c1O` [eticlopride], the Ki [11] was 81 ± 2.1 nM, the Ki [2] was 120 ± 19 nM and the Ki [12] was 4900 ± 210 nM. The Ki [13] was 220 ± 23 nM, the Ki ([1]; [3H]RX821002, ± SD of two experiments) was 66 ± 19 nM and the Ki [4] was 0.28 ± 0.03 nM. The Ki [14] was 46000 ± 1100 nM, the Ki [15] was 23000 ± 5800 nM and the Ki [6] was 0.25 ± 0.062 nM. The “behaviour upon illumination” value [3] was “fast decomposition rate towards light with λp = 365 nm”, the Ki [16] was 570 ± 250 nM and the Ki [17] was 0.21 to 0.28 nM.
